Measurements as given in US11058695B2, “Inhibitor of carbapenem-hydrolyzing class D beta-lactamases” (MYONGJI UNIVERSITY INDUSTRY AND ACADEMIA COOPERATION …, priority 2019, dated 2021).
Read-outs that look alike come from different tables or passages of the source.

Tests used:
[1] = biological target: OXA-48 (Klebsiella pneumoniae, UniProt Q6XEC0); assay: OXA-48 enzyme inhibition assay with nitrocefin; type: biochemical; details: OXA-48 103 pM
Experimental: (§1) The screened 7 compounds were dissolved in 100% DMSO at 10 mM. More diluted stocks were prepared as necessary. OXA-48 activity was determined by monitoring the change of absorbance at 482 nm using the characteristic molecular extinction coefficient (Δε482=15,900 M^−1 cm^−1) of nitrocefin (Oxoid, Hampshire, UK) by a Shimazu UV-1650PC spectrophotometer. Up to 5% DMSO, no influence on the enzyme activity of OXA-48 was observed. The assays were conducted in 10 mM MES (pH 6.8) containing OXA-48 (103 pM), 50 mM NaHCO3, and 20 μg/mL bovine serum albumin. After 5 min of pre-incubation of the purified OXA-48 and each inhibitor at 30° C., the enzymatic reaction was started by adding nitrocefin (100 μM). Residual velocities were determined after 5 minutes. The first 120 s of each reaction was used to measure initial rates. Data were evaluated using Microsoft Excel. Concentration-dependent inhibition of OXA-48 was measured using different concentrations of seven compounds resulting from two-fold dilution series. Reaction progress at every concentration of seven compounds was measured in triplicates. IC50 values were calculated using 4-parameter log fits using XL Fit curve fitting software (www.idbs.com) for Excel using the following equation:
(§2) [formula] where y is the remaining enzyme activity (in %) and x is the corresponding concentration. […]

[2] = biological target: OXA-109 (Acinetobacter baumannii, UniProt A8JZR7); assay: CHDL enzyme inhibition assay with nitrocefin; type: biochemical; details: OXA-109 168 nM, 100 μM nitrocefin, 5 minute pre-incubation; read-out: IC50 against OXA-109
Experimental: as §1
(§3) [formula] where y is the remaining enzyme activity (in %) and x is the corresponding concentration. The fitted IC50 parameter is defined as the concentration giving a response half way between the fitted top (B) and bottom (A) of the curve.
(§4) To investigate the inhibitory effects of the novel inhibitor (PLPBA) against eight CHDLs belonging to six clinically-important CHDL subgroups(member of OXA-23 subgroup: OXA-23; member of OXA-24/40 subgroup: OXA-24/40; member of OXA-48 subgroup: OXA-48; members of OXA-51 subgroup: OXA-51 and OXA-109; member of OXA-58 subgroup: OXA-97; member of OXA-143 subgroup: OXA-143) and five CHDLs belonging to four emerging CHDL subgroups (member of OXA-211 subgroup: OXA-211; members of OXA-229 subgroup: OXA-229 and OXA-418; member of OXA-210 subgroup: OXA-210; and member of OXA-240 subgroup: OXA-240), the IC50 values for them were determined (Table 3). PLPBA was dissolved in 100% DMSO at 10 mM. More diluted stocks were prepared as necessary. Activities of CHDLs were determined by monitoring the change of absorbance at 482 nm. Up to 5% DMSO, no influence on the enzyme activities of CHDLs was observed. Each enzyme (OXA-23, 418 pM; OXA-24/40, 134 pM; OXA-48, 103 pM; OXA-51, 184 nM; OXA-97, 178 pM; OXA-109, 168 nM; OXA-143, 96 pM; OXA-210, 179 pM; OXA-211, 701 pM; OXA-229, 142 pM; OXA-240, 383 pM; OXA-418, 158 pM) was mixed with 100 μM nitrocefin after a 5 minute pre-incubation with PLPBA. The first 120 s of each reaction was used to measure initial rates. Data were evaluated using Microsoft Excel. Reaction progress at every concentration of PLPBA was measured in triplicates.

[3] = biological target: OXA-143 (Acinetobacter baumannii, UniProt D0UHC8); assay: CHDL enzyme inhibition assay with nitrocefin; type: biochemical; details: OXA-143 96 pM, 100 μM nitrocefin, 5 minute pre-incubation; read-out: IC50 against OXA-143
Experimental: as §1, §3, §4

[4] = biological target: OXA-210 (Pseudomonas aeruginosa, UniProt F6ME16); assay: CHDL enzyme inhibition assay with nitrocefin; type: biochemical
Experimental: as §1, §3, §4

[5] = biological target: OXA-211 (Acinetobacter johnsonii, UniProt G9JKV7); assay: CHDL enzyme inhibition assay with nitrocefin; type: biochemical; details: OXA-211 701 pM, 100 μM nitrocefin, 5 minute pre-incubation; read-out: IC50 against OXA-211
Experimental: as §1, §3, §4

[6] = biological target: OXA-229 (Acinetobacter bereziniae, UniProt I6S7G0); assay: CHDL enzyme inhibition assay with nitrocefin; type: biochemical; details: OXA-229 142 pM, 100 μM nitrocefin, 5 minute pre-incubation; read-out: IC50 against OXA-229
Experimental: as §1, §3, §4

[7] = biological target: OXA-23 (Acinetobacter baumannii, UniProt Q9L4P2); assay: CHDL enzyme inhibition assay with nitrocefin; type: biochemical; details: OXA-23 418 pM, 100 μM nitrocefin, 5 minute pre-incubation; read-out: IC50 against OXA-23
Experimental: as §1, §3, §4

[8] = biological target: OXA-24/40 (Acinetobacter baumannii, UniProt Q8RLA6); assay: CHDL enzyme inhibition assay with nitrocefin; type: biochemical
Experimental: as §1, §3, §4

[9] = biological target: OXA-51 (Acinetobacter baumannii, UniProt Q5QT35); assay: CHDL enzyme inhibition assay with nitrocefin; type: biochemical; details: OXA-51 184 nM, 100 μM nitrocefin, 5 minute pre-incubation; read-out: IC50 against OXA-51
Experimental: as §1, §3, §4

[10] = biological target: OXA-97 (Acinetobacter baumannii, UniProt A5Y470); assay: CHDL enzyme inhibition assay with nitrocefin; type: biochemical; details: OXA-97 178 pM, 100 μM nitrocefin, 5 minute pre-incubation; read-out: IC50 against OXA-97
Experimental: as §1, §3, §4

[11] = biological target: OXA-240 (Pseudomonas aeruginosa, UniProt I6VVS5); assay: CHDL enzyme inhibition assay with nitrocefin; type: biochemical, P. aeruginosa; details: OXA-240 383 pM, 100 μM nitrocefin, 5 minute pre-incubation; read-out: IC50 against OXA-240
Experimental: as §1, §2

Sequence of OXA-48 (Q6XEC0 24-265 limits assumed, looked up): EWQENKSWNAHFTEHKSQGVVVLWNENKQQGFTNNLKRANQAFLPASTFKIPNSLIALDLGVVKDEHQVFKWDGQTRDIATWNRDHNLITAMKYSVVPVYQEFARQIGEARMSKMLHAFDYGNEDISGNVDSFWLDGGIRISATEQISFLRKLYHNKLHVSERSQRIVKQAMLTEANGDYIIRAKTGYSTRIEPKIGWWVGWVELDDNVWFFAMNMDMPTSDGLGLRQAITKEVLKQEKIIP
Sequence of OXA-240 (I6VVS5 21-266 limits assumed): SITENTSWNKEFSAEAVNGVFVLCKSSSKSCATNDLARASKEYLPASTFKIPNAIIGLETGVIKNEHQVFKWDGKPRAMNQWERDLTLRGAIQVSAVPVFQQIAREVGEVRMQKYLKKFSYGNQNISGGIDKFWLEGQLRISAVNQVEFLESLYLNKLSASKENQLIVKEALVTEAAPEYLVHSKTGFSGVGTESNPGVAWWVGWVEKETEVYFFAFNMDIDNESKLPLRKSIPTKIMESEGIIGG
Sequence of OXA-211 (G9JKV7 entry or part of it): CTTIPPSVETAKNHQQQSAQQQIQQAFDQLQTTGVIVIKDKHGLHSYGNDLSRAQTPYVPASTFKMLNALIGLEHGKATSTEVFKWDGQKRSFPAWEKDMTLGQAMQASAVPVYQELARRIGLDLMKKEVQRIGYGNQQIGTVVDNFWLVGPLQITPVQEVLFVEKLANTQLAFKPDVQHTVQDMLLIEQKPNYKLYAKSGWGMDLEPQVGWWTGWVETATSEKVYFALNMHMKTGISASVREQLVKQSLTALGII
Sequence of OXA-97 (A5Y470 entry or part of it): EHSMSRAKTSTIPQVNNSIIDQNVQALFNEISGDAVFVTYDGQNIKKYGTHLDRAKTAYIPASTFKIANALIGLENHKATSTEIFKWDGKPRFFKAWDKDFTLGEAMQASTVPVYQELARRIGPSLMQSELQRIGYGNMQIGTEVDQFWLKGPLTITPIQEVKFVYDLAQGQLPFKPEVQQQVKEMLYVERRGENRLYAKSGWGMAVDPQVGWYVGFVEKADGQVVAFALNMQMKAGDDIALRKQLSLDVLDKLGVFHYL
Sequence of OXA-24/40 (Q8RLA6 entry or part of it): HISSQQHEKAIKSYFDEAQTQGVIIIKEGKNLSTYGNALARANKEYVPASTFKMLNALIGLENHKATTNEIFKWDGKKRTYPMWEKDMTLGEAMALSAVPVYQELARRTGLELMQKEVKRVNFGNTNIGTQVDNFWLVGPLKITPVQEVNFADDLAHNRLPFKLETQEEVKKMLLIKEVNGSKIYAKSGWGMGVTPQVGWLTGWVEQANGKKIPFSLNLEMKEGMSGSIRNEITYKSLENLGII
Sequence of OXA-143 (D0UHC8 entry or part of it): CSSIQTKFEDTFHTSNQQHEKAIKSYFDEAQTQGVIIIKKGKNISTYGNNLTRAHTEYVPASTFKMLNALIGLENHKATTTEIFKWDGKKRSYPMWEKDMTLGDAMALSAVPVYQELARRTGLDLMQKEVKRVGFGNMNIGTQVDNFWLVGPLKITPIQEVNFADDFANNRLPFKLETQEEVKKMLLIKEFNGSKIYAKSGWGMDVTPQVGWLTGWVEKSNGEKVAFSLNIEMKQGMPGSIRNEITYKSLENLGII
Sequence of OXA-210 (F6ME16 entry or part of it): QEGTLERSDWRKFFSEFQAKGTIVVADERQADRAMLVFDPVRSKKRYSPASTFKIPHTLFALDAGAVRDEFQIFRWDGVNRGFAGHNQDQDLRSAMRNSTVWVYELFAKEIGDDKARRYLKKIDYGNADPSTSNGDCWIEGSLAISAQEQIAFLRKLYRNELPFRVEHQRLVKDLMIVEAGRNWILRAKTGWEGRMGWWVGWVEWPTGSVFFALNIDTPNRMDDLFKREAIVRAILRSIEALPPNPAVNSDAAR
Sequence of OXA-23 (Q9L4P2 31-273 limits assumed): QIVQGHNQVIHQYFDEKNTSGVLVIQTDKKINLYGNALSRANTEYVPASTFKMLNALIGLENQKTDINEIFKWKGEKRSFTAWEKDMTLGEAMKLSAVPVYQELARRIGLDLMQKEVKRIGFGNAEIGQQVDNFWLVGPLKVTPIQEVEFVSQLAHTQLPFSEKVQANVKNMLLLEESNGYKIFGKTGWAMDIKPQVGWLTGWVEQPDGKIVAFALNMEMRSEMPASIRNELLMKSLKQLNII
Sequence of OXA-229 (I6S7G0 entry or part of it): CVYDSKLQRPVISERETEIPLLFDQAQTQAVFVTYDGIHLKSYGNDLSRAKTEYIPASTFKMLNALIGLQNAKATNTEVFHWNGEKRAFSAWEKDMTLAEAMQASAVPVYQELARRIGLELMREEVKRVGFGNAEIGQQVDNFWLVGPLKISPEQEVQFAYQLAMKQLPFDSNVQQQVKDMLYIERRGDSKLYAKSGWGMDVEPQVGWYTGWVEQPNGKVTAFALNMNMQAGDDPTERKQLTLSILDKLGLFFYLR
Sequence of OXA-51 (Q5QT35 entry or part of it): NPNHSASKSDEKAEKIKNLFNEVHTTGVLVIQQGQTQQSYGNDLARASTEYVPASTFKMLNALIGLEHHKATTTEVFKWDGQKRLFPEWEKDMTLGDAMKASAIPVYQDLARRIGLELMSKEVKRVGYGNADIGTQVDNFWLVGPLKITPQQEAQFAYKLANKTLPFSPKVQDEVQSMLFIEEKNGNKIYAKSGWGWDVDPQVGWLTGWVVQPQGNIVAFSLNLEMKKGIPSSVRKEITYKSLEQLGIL
Sequence of OXA-109 (A8JZR7 entry or part of it): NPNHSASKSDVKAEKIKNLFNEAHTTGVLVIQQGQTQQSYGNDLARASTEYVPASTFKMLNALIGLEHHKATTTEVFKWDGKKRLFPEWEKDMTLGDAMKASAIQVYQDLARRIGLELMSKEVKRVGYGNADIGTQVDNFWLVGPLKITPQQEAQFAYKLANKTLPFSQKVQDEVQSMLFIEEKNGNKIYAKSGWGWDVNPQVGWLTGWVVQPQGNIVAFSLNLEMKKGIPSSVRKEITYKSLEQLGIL

OB(O)c1cccc(OCCc2ccccc2)c1 [Compound 1, [3-(2-Phenylethoxy)phenyl]boronic Acid]
IC50 ([1]; nitrocefin 100 μM, 5 min pre-incubation at 30° C., 10 mM MES pH 6.8, read-out: IC50 values on OXA-48 of the screened compounds): 155 µM
IC50 ([1]; Table 3, 100 μM nitrocefin, 5 minute pre-incubation, read-out: IC50 against OXA-48): 154.84 ± 0.02 µM
IC50 [2]: 864.59 ± 0.02 µM
IC50 [3]: 91.79 ± 0.01 µM
IC50 [4]: 218.79 ± 0.02 µM
IC50 [5]: 238.51 ± 0.01 µM
IC50 [6]: 171.93 ± 0.01 µM
IC50 [7]: 275.54 ± 0.02 µM
IC50 [8]: 384.73 ± 0.02 µM
IC50 [9]: 594.73 ± 0.01 µM
IC50 [10]: 189.02 ± 0.01 µM
IC50 [11]: 218.59 ± 0.03 µM
